The supplement of paper PMC12420376

Key:
[1] = test system: KURAMOCHI; test: drug sensitivity score (DSS2) on cancer cell count; higher = more sensitive; extreme values may be limits of the assay; settings: 72 h
Method in brief: (§1)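 Screen quality was checked by Z', and a drug sensitivity score was derived in Breeze from logistic fits of the cancer cell counts. These counts were obtained by imaging at 10× (4 fields) after fixing and immunostaining for CK8/18 with Hoechst. Before that, ovarian cancer cells, alone or in 1:1 direct co-culture with lung or skin fibroblasts, had been treated for 72 h on 384-well plates acoustically pre-spotted with 528 approved and investigational compounds at 5 concentrations.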

[2] = test system: OVCAR8; test: as above; settings: 72 h
Method in brief: as §1

[3] = co-cultured fibroblast: BJHTERT
[4] = co-cultured fibroblast: none (monoculture)

Compound	drug sensitivity score [1, 3] [DSS]	drug sensitivity score ([1]; co-cultured fibroblast: WI38) [DSS]	drug sensitivity score [1, 4] [DSS]	drug sensitivity score [2, 3] [DSS]	drug sensitivity score ([2]; co-cultured fibroblast: WI38) [DSS]	drug sensitivity score [2, 4] [DSS]
CC(C)(C)C[C@@H]1N[C@@H](C(=O)N[C@H]2CC[C@H](O)CC2)[C@H](c2cccc(Cl)c2F)[C@]12C(=O)Nc1cc(Cl)ccc12	0	0.1	0	2.5	0	0
CC(C)(C)c1cc(NC(=O)Nc2ccc(Oc3ccnc4[nH]c(=O)cnc34)cc2F)n(-c2ccccc2)n1	10	6.1	7	6.6	3.4	4.6
CC(C)Oc1ccc(C(=O)N[C@H](CNC(=O)CN(C)C)Cc2ccc(-c3cn4cccc([C@H](C)O)c4n3)cc2)cc1Cl	18.1	22.6	22.8	18.3	14.2	16.6
CC[C@@H]1[C@H](F)C(=O)N[C@@H]1COc1nccc2cc(C(N)=O)c(OC)cc12	3.7	1.8	1.9	2.4	10.1	4
CCc1cncnc1N1CCN(Cc2nc3ccc(C(F)(F)F)cc3[nH]2)CC1	1	0	2.1	1.3	0	2.4
CCn1c(-c2nonc2N)nc2c(C#CC(C)(C)O)ncc(OC[C@H]3CCCNC3)c21	4.3	6.1	3.9	0.2	1.1	0.4
CCn1c(-c2nonc2N)nc2cnc(Oc3cccc(NC(=O)c4ccc(OCCN5CCOCC5)cc4)c3)cc21	4.2	5.2	4.2	10.9	31.2	18.4
CCn1cc(-c2ccnc3[nH]c(-c4cccc(CN(C)C)c4)cc23)c(-c2ccc(NC(=O)N(C)C)cc2)n1	13.7	15.5	14.2	12.3	4.4	10
CN(c1ncccc1CNc1nc(Nc2ccc3c(c2)CC(=O)N3)ncc1C(F)(F)F)S(C)(=O)=O	11.5	10.7	12.6	8.5	6.6	6.2
CNC(=O)c1ccc(C)c(-n2c(C)cc(OCc3ccc(F)cc3F)c(Br)c2=O)c1	0.6	0	14.9	0.9	0	0
CNC(=O)c1ccccc1Nc1nc(Nc2ccc3c(c2OC)CCC[C@H](N2CCN(CCO)CC2)C3)ncc1Cl	6.7	2.2	9.5	7.3	2.2	11.1
CNS(=O)(=O)Nc1nccc(Cc2c(C)c3ccc(Oc4ncccn4)cc3oc2=O)c1F	0	0	4.3	0	5.7	0.2
CNc1nc(-c2ccc3c(N)n[nH]c3c2)cc(N2C[C@@H](C(=O)NC3CCCCC3)CC[C@H]2C)n1	3.2	3.1	6.5	1.3	0.1	2.8
CNc1ncc2cc(-c3cc(NC(=O)NCCC(C)(C)C)c(F)cc3C)c(C)nc2n1	12.7	10.2	9.9	13.1	15.7	14.7
CONC(=O)c1ccccc1Nc1cc(Nc2cc(C)nn2C(C)C)ncc1Cl	3.3	0	0.2	0.8	4.2	0
CO[C@@H](C)Cn1c(=O)n(C)c2cnc3ccc(-c4cncc(C(C)(C)O)c4)cc3c21	11.9	10.9	9.2	9.6	9.6	9.8
COc1cc2ncnc(Oc3cccc(NC(=O)Nc4cc(C(C)(C)C(F)(F)F)on4)c3)c2cc1OC	0	1.4	0	0	0	0.8
COc1ccc(Cn2ccc3ccc(C(=O)NO)cc32)cc1	6.6	2.3	3.2	2.5	0.7	3
COc1ccc2[nH]cc(/C=C3\C(=O)Nc4ccc(NC(=O)CCN5CCCCC5)cc43)c2c1	7.6	9.6	9.2	4	9.8	8.6
C[C@@H](Oc1cc(-n2cnc3ccc(CN4CCN(C)CC4)cc32)sc1C(N)=O)c1ccccc1C(F)(F)F	28	27.7	25.3	42.4	32.3	31
C[C@@H](Oc1ccc2[nH]nc(/C=C/c3cnn(CCO)c3)c2c1)c1c(Cl)cncc1Cl	5.7	2.2	6.7	8.2	9.2	8
C[C@@H]1CN(CC(=O)Nc2ccc3c(c2)Cc2cccc(-c4cc(=O)cc(N5CCOCC5)o4)c2S3)C[C@H](C)O1	3.2	0.2	2.5	7.6	5.6	0.7

Compound	drug sensitivity score [1, 3] [DSS]	drug sensitivity score ([1]; co-cultured fibroblast: WI38) [DSS]	drug sensitivity score [1, 4] [DSS]	drug sensitivity score [2, 3] [DSS]	drug sensitivity score ([2]; co-cultured fibroblast: WI38) [DSS]	drug sensitivity score [2, 4] [DSS]
C[C@H]1Oc2cc(cnc2N)-c2c(nn(C)c2C#N)CN(C)C(=O)c2ccc(F)cc21	0.7	0	0	0.4	8.7	5.7
Cc1c(-c2c(-c3ccc(F)o3)sc3ncnc(O[C@H](Cc4ccccc4OCc4ccnn4CC(F)(F)F)C(=O)O)c23)ccc(OCCN2CCN(C)CC2)c1Cl	0	0	0	0	0	0
Cc1c(Cn2c(C)nc3c(C(=O)O)cc(N4CCOCC4)cc32)cccc1C(F)(F)F	5.5	0.3	6.9	3.7	0	0
Cc1cccc(CC(=O)N2CCc3c2ccc(-c2cn(C)c4ncnc(N)c24)c3F)n1	0.3	0	0	1.4	0	0
Cc1nc(Nc2n[nH]c3c2CN(C(=O)N[C@H](CN(C)C)c2ccccc2)C3(C)C)c2sccc2n1	21	24.6	19.4	20.8	9.4	15.5
Cc1ncc(Cl)cc1NCc1ccc(C(=O)N[C@@H](CC2CCCC2)C(=O)NC2CC2)s1	0	0	0	0	0	0
Cn1cc(-c2ccc(F)c(C(F)(F)F)c2)nc1C1CCN(c2ncnc3[nH]ncc23)CC1	1	0	0	0	0	0.6
Cn1cc(C2=Nc3cc(NC(=O)C(N)C4CCCCC4)cc4c3C2=CNNC4=O)cn1 (stereo not given)	14.6	12.1	21	16.2	13	16.7
NCC(=O)Nc1ccc(-n2nc(C(F)(F)F)cc2-c2ccc3c(ccc4ccccc43)c2)cc1	2.6	4.1	8	0	0	9.7
Nc1nccc(-c2c(-c3ccc(F)cc3)ncn2C2CCCCC2)n1	5.1	4	4.1	1.4	0	1.2
Nc1ncnc2c1c(COc1cccc(Cl)c1)nn2C1CCOCC1	0	0	0	0	0	0
O=C(NC[C@H](O)CN1CCc2ccccc2C1)c1cc(NC2COC2)ncn1	0.1	0	0	0	0	0
O=C(NCc1ccncc1)C12CC3CC(C1)CC(c1ccc(Cl)cc1)(C3)C2	5.8	5.6	3.7	3.9	3.6	5
O=C(NOC[C@H](O)CO)c1ccc(F)c(F)c1Nc1ccc(I)cc1F	8.8	0.8	3.3	7.7	0	10.6
O=C(O)c1ccc(-c2c[nH]c3ncc(-c4ccccc4)cc23)cc1C1CCCC1	6.8	7.3	7.1	2	4.8	8.1
O=C(O)c1ccc(CN2CCC(CN[C@@H]3C[C@H]3c3ccccc3)CC2)cc1	0.9	0	0	0	0	2.2
O=C1Cc2cc(C(=O)NC3C[C@H]4CC[C@@H](C3)N4S(=O)(=O)CC3CCN(CCCC(F)(F)F)CC3)c(Cl)cc2N1 (stereo not given in full)	0	0.1	0	0	0	0
CCN(CC)CCCC(C)Nc1ccnc2cc(Cl)ccc12 (stereo not given) [Chloroquine]	–	–	–	12.8	6.4	6.4
Nc1ccn([C@@H]2O[C@H](CO)[C@@H](O)[C@@H]2O)c(=O)n1 [Cytarabine]	–	–	–	20.1	18.3	25.2
Cc1ccc(NC(=O)c2ccc(CN3CCN(C)CC3)cc2)cc1Nc1nccc(-c2cccnc2)n1 [Imatinib]	–	–	–	2	7.3	1.4
CC[C@H](CO)Nc1nc(NCc2ccccc2)c2ncn(C(C)C)c2n1 [Seliciclib]	–	–	–	4.9	6.1	–
